Data published in patent US5716934A, “Eck receptor ligands” (Amgen Inc., priority 1995, dated 1998).

Assays:
[1] = test system: eck receptor (p130^eck); assay: p130eck autophosphorylation in LIM 2405 cells; format: cell-based, human; details: intact LIM 2405 cells, 10-15 min at 37° C.
Description: The LIM 2405 colorectal carcinoma cell line (Whitehead et al. Immunol. and Cell Biol. 70, 227 (1992)) was maintained in RPMI 1640 containing 5% FBS, 1 μg/ml insulin, 10 μg/ml hydrocortisone and 10 μM α-thioglycerol, and subpassaged by trypsination and dilution (1:5) into fresh media. Prior to assay 2.5×10^5 LIM 2405 cells were seeded into 6-well dishes (Falcon #3046) and incubated for 24 hr at 37° C. The media was discarded and replaced with serum-free RPMI 1640 containing 0.03% BSA, 1 μg/ml insulin, 10 μg/ml hydrocortisone and 10 μM α-thioglycerol, then incubated for 12-18 hr. In some experiments the cell cultures were labelled with ^32 P-orthophosphate (2 mCi/ml) in phosphate-free RPMI 1640 (Flow) for 2-3 hr prior to treatment. Growth factor stock solutions were prediluted at varying concentrations into 2.0 ml of serum-free media, then warmed to 37° C. Cell cultures were removed from the incubator, and the supernatant media discarded. Treatments were promptly added and the cell cultures incubated at 37° C. for 10-15 min. The cultures were then removed from the incubator, placed on ice, and the culture supernatant aspirated.
The treated cell cultures were chilled to 0° C. then washed once with ice-cold PBS (GIBCO). The residual PBS was aspirated and the cells were lysed by the addition of 1.0 ml of ice-cold RIPA buffer (10 mM sodium phosphate, pH 7.4, 150 mM sodium chloride, 0.1% sodium dodecyl sulfate, 1% NP-40, 1% deoxycholate, 1% Trasylol, 2 mM EDTA, 50 mM sodium fluoride and 100 mM sodium orthovanadate). After a 10 min incubation the lysates were transferred to 1.5 ml tubes and clarified by centrifugation for 30 min at 10,000×g. The clarified lysate supernatants were transferred to new tubes and immunoprecipitated with 1.0 μg/ml of affinity purified rabbit anti-Eck C-terminal domain antibody for 2 hr at 0° C. Immune complexes were adsorbed to Protein-G Sepharose beads (Pharmacia) at 4° C. for 30 min, washed twice with ice-cold RIPA buffer, once with 0.1M Tris-HCl, pH 8.0, containing 0.5M LiCl, and once with RIPA. The resulting immunoprecipitates were solubilized with SDS-PAGE sample buffer and stored for further analysis.
The anti-eck immunoprecipitates from treated and untreated LIM 2405 cell lysates were resolved on 7.5% polyacrylamide gels as previously described (Boyle et al. Meth. Enzymol. 201, 110 (1991)). […] Immune complexes were detected by chemiluminescent exposure (ECL, Amersham) to Kodak X-OMAT X-ray film at room temperature for 0.5-5 min.
Eck receptor immunoprecipitates from ^32 P-labelled LIM 2405 cells were resolved by SDS-PAGE, and the gel dried directly without fixation. After exposure to X-ray film the labelled eck receptor band was isolated and phosphoamino acid content determined as described (Boyle et al. Meth. Enzymol. 201, 110 (1991))

[2] = test system: granulation tissue in subcutaneously implanted wound chambers; assay: Rat wound chamber assay (granulation tissue formation); format: in vivo
Description: Male Sprague-Dawley specific pathogen free rats (300-350 g; Charles River Breeding Laboratories, Inc.) were used for this study. Rats were anesthetized with sodium pentobarbital (50 mg/kg body weight) by intraperitoneal injection. Using aseptic surgical technique, a 3 cm midline incision was made on the dorsal surface of the rat. A single pocket was formed under the panniculus carnosis by blunt dissection on one side of the animal. A 3 cm long×1 cm diameter sterile stainless steel wire mesh cylinder was then inserted subcutaneously. The wound chambers used were similar to those described by Schilling et. al. (Surgery 46, 702-710 (1959)) and utilized by Hunt et. al. (Am. J. Surg. 114, 302-307 (1967)) as wound healing models. The incision was closed with wound clips. The rats survived the operation well with no evidence of postoperative discomfort. Beginning 3 days after wound chamber implantation, the rats were randomly divided into 5 groups. At this time daily injections of 1) 10 μg CHO-derived EBP, 2) 1 μg CHO-derived EBP, 3) 8 μg E. coli derived EBP, 4) 5 μg recombinant platelet derived growth factor (PDGF), or 5) 0.1 ml sterile PBS and 1 mM CHAPS were begun and continued for a total of 9 days. The injections were made directly into the wound chamber through a silicone septum at the outer edge of the chamber. Twelve days after chamber implantation, the rats were sacrificed by CO2 asphyxiation. Immediately after sacrifice, the chambers were removed surgically and carefully opened. The enclosed granulation tissue was then weighed, and stored at -70° C. for future processing.
Granulation tissue samples were thawed and homogenized with a Polytron homogenizer in 2 ml of ice-cold distilled water for approximately 1 minute. Next, 2 ml of ice-cold 10% trichloroacetic acid was added to the homogenate and incubated at 4° C. for 1 hour. The TCA-precipitated samples were centrifuged (500 g, 10 minutes) at 4° C., washed once with 2 ml of ice-cold 5% TCA, and finally washed with 2 ml of ice-cold 95% ethanol containing 50 mM sodium acetate. Samples were defatted twice with 2 ml of ethanol:ether (3:1, v/v) at 20° C. After each defatting procedure, samples were centrifuged (500×g, 10 minutes) and the supernate discarded. The pellet was then dissolved in 1N sodium hydroxide and brought up to a volume of 10 ml.
Total protein was determined by taking an aliquot of the solubilized granulation tissue and assaying the sample according to the method of Bradford (Anal. Biochem. 72, 248-251 (1976)) Bovine serum albumin (Sigma Chemical Co., St. Louis, Mo.) was used for a protein standard curve.
Total DNA content was determined as deoxy-ribose by the colorimetric method of Burton (Biochem. J. 62, 315 (1956)). Briefly, a 1 ml aliquot of the solubilized sample (in 1N NaOH) was neutralized with the addition of 0.5 ml of 2N HCl. A 1 ml aliquot of the neutralized solution was extracted in 10% perchloric acid at 90° C. for 15 minutes. A 1 ml portion of the final extract was added to 2 ml activated diphenylamine (Sigma Chemical, St. Louis, Mo.) reagent and absorbance at 600 nm was measured after overnight incubation at room temperature. Hydrolyzed calf thymus DNA (Sigma) was used to construct the standard curve. The DNA content was measured as a rough index of the number of cells in the wound chamber, with the realization that cell type and cell cycle status also influence DNA content.
Total glycosaminoglycans (GAGs) were determined using chondroitin sulfate as a standard. A spectrophotometric assay for GAGs was run utilizing a change in absorption spectrum of the dye 1,9- dimethyl methylene blue (Farndale et al. Conn. Tiss. Res. 9, 247-248 (1982)).
Total collagen content was determined as hydroxyproline (an index of collagen content) after hydrolysis of the solubilized granulation tissue in 6N HCl at 110° C. for 24 hours. […]

[3] = test system: extracellular domain of the kit receptor; assay: BIAcore binding to surfaces activated with kit receptor extracellular domain
Source text: SDS-PAGE analysis of the fractions from this column confirmed that EBP was co-eluted with the receptor binding activity.

[4] = 5 ug per chamber per day x 9 days, harvest day 12, mean ± SEM
[5] = 5 ug per chamber per day x 9 days, harvest day 12, mean ± SEM, listed as rPDGF

Substance: EGF: growth factor used to treat LIM 2405 cells as specificity control [reference compound]
- eck receptor phosphorylation [1]: nor does EGF treatment induce eck phosphorylation

Substance: PDGF [reference compound]
- DNA [2, 4]: 356 ± 64 µg
- HYDROXY-PROLINE [2, 4]: 478.4 ± 85.9 µg
- TOTAL GYLCOSAMINO-GLYCANS [2, 4]: 725.2 ± 104.4 µg
- TOTAL PROTEIN [2, 4]: 7.46 ± 1.52 mg
- WET WEIGHT [2, 4]: 417.4 ± 81.8 mg
- DNA [2, 5]: significantly increased
- TOTAL GYLCOSAMINO-GLYCANS [2, 5]: significantly increased
- TOTAL PROTEIN [2, 5]: significantly increased
- WET WEIGHT [2, 5]: significantly increased
- increase in hydroxyproline content over control chambers ([2]; PDGF treated chambers (5 μg per day)): 82%

Substance: rSCF: the kit ligand [reference compound]
- binding to BIAcore surfaces activated with the extracellular domain of the kit receptor [3]: could bind
